According to PubChem BioAssay (NCI):
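Cultured in 96-well plates, cells were exposed to test compound for 48 hours across five concentrations. TGI marks complete inhibition of growth.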

Assays:
Assay in all cases: inhibition of tumour cell growth, NCI panel, 48 h
SK-MEL-28 melanoma = system: SK-MEL-28 melanoma
786-0 renal = system: 786-0 renal
SF-295 CNS = system: SF-295 CNS
RXF 393 renal = system: RXF 393 renal
SF-539 CNS = system: SF-539 CNS
SN12C renal = system: SN12C renal
IGROV1 ovarian = system: IGROV1 ovarian
SK-MEL-2 melanoma = system: SK-MEL-2 melanoma
LOX IMVI melanoma = system: LOX IMVI melanoma
SW-620 colon = system: SW-620 colon
HT29 colon = system: HT29 colon
OVCAR-4 ovarian = system: OVCAR-4 ovarian

Structure (SMILES)	TGI (SK-MEL-28 melanoma) [µM]	TGI (786-0 renal) [µM]	TGI (SF-295 CNS) [µM]	TGI (RXF 393 renal) [µM]	TGI (SF-539 CNS) [µM]	TGI (SN12C renal) [µM]	TGI (IGROV1 ovarian) [µM]	TGI (SK-MEL-2 melanoma) [µM]	TGI (LOX IMVI melanoma) [µM]	TGI (SW-620 colon) [µM]	TGI (HT29 colon) [µM]	TGI (OVCAR-4 ovarian) [µM]
[N-]=[N+]=Nc1c([N+](=O)[O-])c(=O)n(-c2ccccc2)c2ccccc12	80.5	43.4	95.5	38.9	47.1	62.9	88.4	52.5	43.9	58.4	> 100	49.4
COc1cc(OC)c2nc(C)c(CCCl)c(Cl)c2c1	> 100	> 100	> 100	> 100	> 100	> 100	> 100	> 100	> 100	> 100	> 100	> 100
C[n+]1c2ccc(Cl)cc2nc2cc(-c3ccccc3)ccc21	43.8	> 100	11.5	55.2	34	25.1	35.4	46.2	> 100	> 100	> 100	40.5
CCOC1(OCC)C2C=CC1C(COS(=O)(=O)c1ccc(C)cc1)C2COS(=O)(=O)c1ccc(C)cc1 (centres undefined)	> 100	> 100	> 100	> 100	> 100	> 100	> 100	80.9	> 100	> 100	> 100	79.2
Brc1ccc2[nH]cc(-c3csc(-c4c[nH]c5ccccc45)n3)c2c1	15.3	5.27	6.32	11.2	16.7	14.2	11.6	9.36	4.5	8.23	3.29	28.1
O=S(=O)(O)CCCc1cccc2ccccc12	> 100	> 100	> 100	> 100	> 100	> 100	> 100	> 100	> 100	> 100	> 100	> 100
COc1cc(C2c3cc4c(cc3OC(N3CCCCC3)C2C)OCO4)cc(OC)c1O (centres undefined)	27.3	27.7	13.4	> 100	25.5	27.5	36.4	25.2	> 59.8	21.9	> 37.5	> 61.2
N#Cc1n[nH]n(-c2ccc(Br)cc2)c1=O	> 100	> 100	> 100	> 100	> 100	> 100	> 100	> 100	> 100	> 100	> 100	> 100
O=c1oc2ccc3ccccc3c2cc1-c1nc2ccccc2s1	> 100	> 100	> 100	> 100	> 100	> 100	> 100	> 100	> 100	> 100	> 100	> 100
O=C(O)C(O)C(O)C(O)C(O)c1nc2ccccc2s1 (centres undefined)	38	30.4	31.9	32.6	34.1	34.8	24.7	36.5	36.7	54.7	41.9	50.2
COc1cc(OC)cc(Oc2nc3ccccc3nc2C(F)(F)F)c1	> 100	> 100	> 100	> 100	> 100	> 100	> 100	> 100	> 100	> 100	> 100	> 100
NC(N)=NCCN1CC2CCC(CC2)C1	> 100	> 100	> 100	> 100	> 100	> 100	> 100	> 100	> 100	> 100	> 100	> 100
